This note sets out measurements from US4786635A, “Novel benzothiazine derivatives” (Santen Pharmaceutical Co., Ltd., priority 1985, dated 1988).

Where a name gives a salt, the structure may show the parent alone.

This test has as its system Isolated guinea-pig taenia coli. Put plainly: calcium-antagonistic activity: inhibition of CaCl2-induced contraction of isolated guinea-pig taenia coli. The format is cell-based. The settings on record: Cavia porcellus, Ca^++ -free Krebs solution, 32° C., test compound 5 minutes before CaCl2 (3×10^-4 M), isotonic recording, read-out: IC50 (concentration of the test compound which elicited 50% inhibition of Ca^++ -induced contraction). The method, then:
(Method for mesurement of calcium-antagonistic activity) Isolated guinea-pig taenia coli was suspended in a 20 ml organ bath filled with Krebs solution at32° C. and bubbled with 5% carbon dioxide in oxygen. After equilibration, the muscle was suspended in Ca^++ -free Krebs solution. The muscle was then exposed to the test compound for 5 minutes before the addition of CaCl2, and the contraction induced by CaCl2 (3×10^-4 M) was recorded isotonically. The calcium-antagonistic activity was represented by the concentration of the test compound which elicited 50% inhibition (IC50) of Ca^++ -induced contraction.
For `COc1ccc(OCCCCN(C)CCOc2ccc3c(c2)OCO3)c(C2Sc3ccccc3N(C)C2=O)c1` (stereo not shown) [Compound A, 3,4-dihydro-2-[5-methoxy-2-[4-[N-methyl-N-[2-[(3,4-methylenedioxy)phenoxy]ethyl]amino]butoxy]phenyl]-4-methyl-3-oxo-2H-1,4-benzothiazine oxalate], the IC50 amounted to 320 nM.
The same measure for `COc1ccc(OCCCN(C)CCOc2ccc3c(c2)OCO3)c(C2Sc3ccccc3N(C)C2=O)c1` (stereo not shown) [Compound B, 3,4-dihydro-2-[5-methoxy-2-[3-[N-methyl-N-[2-[(3,4-methylenedioxy)phenoxy]ethyl]amino]propoxy]phenyl]-4-methyl-3-oxo-2H-1,4-benzothiazine fumarate]: 240 nM.
The same measure for `COc1ccc(OCCCCN(C)CCOc2ccc(OC)c(OC)c2)c(C2Sc3ccccc3N(C)C2=O)c1` (stereo not shown) [Compound C, 3,4-dihydro-2-[5-methoxy-2-[4-[N-methyl-N-[2-[(3,4-dimethoxy)phenoxy]ethyl]amino]butoxy]phenyl]-4-methyl-3-oxo-2H-1,4-benzothiazine oxalate]: 290 nM; for `COc1ccc(OCCCCN(C)CCc2ccc(OC)c(OC)c2)c(C2Sc3ccccc3N(C)C2=O)c1` (stereo not shown) [Reference Compound, 3,4-dihydro-2-[5-methoxy-2-[4-[N-methyl-(3,4-dimethoxy)phenetylamino]butoxy]phenyl]-4-methyl-3-oxo-2H-1,4-benzothiazine oxalate, reference compound]: 3200 nM.
